Values after ≈ are worked out from the molar mass of the structure shown. Where a name gives a salt, the structure may show the parent alone.
Experiments:
P. mirabilis 889 = experiment: MIC against P. mirabilis 889; assay type: cell-based; conditions: for MIC: Proteus mirabilis, 889, P. mirabilis 889
E. coli 96 R+ = experiment: in vivo test in mice against experimental infection, E. coli 96 R+; conditions: Escherichia coli, sc, mice (5 mice/group), s.c., dosed at 1 and 5 hours after infection, read-out: Total s.c. CD50
Procedure: (§1) The compound of Example 5 was tested in vivo in mice against experimental infections.
(§2) Organism Total* s.c. CD50 (Mg/Kg)
(§3) *dosed at 1 and 5 hours after infection

[1] = blood concentration in mice after subcutaneous administration; assay type: in vivo; conditions: mouse, sc, mice (5), 50 mg/kg
Procedure: The compound of Example 5 was administered to mice (5) by the subcutaneous route at a dosage of 50 mg/kg and the blood concentration determined.

E. coli 96 R- = experiment: in vivo test in mice against experimental infection, E. coli 96 R-; conditions: Escherichia coli, sc, mice (5 mice/group), s.c., dosed at 1 and 5 hours after infection, read-out: Total s.c. CD50
Procedure: as §1, §2, §3

K. aerogenes T767 = experiment: in vivo test in mice against experimental infection, K. aerogenes T767; conditions: Klebsiella aerogenes, sc, mice (5 mice/group), s.c., dosed at 1 and 5 hours after infection, read-out: Total s.c. CD50
Procedure: as §1, §2, §3

CCN1CCN(C(=O)N[C@@H](C(=O)N[C@]2(NC=O)C(=O)N3[C@@H](C(=O)O)C(C)(C)S[C@@H]32)c2ccc(O)cc2)C(=O)C1=O [Example 5, 6α-Formamido-6β-[D-2-[(4-ethyl-2,3-dioxopiperazin-1-yl)carbonylamino]-2-(4-hydroxyphenyl)acetamido]penicillanic acid, sodium salt]
MIC (P. mirabilis 889): 0.1 µg/mL
ED50 (E. coli 96 R+): 5.2 mg/kg
AUC [1]: 11000 ng·h/mL
concentration at 5 min ([1]; 5 mins): 24400 ng/mL
concentration at 10 min ([1]; 10 mins): 23200 ng/mL
concentration at 20 min ([1]; 20 mins): 14500 ng/mL
concentration at 0.5 h ([1]; 30 mins): 11000 ng/mL
concentration at 1 h ([1]; 60 mins): < 900 ng/mL
concentration at 2 h ([1]; 120 mins): < 900 ng/mL
ED50 (E. coli 96 R-): < 3.1 mg/kg
ED50 (K. aerogenes T767): 3.7 mg/kg

CCN1CCN(C(=O)N[C@H](C(=O)N[C@]2(NC=O)C(=O)N3[C@@H](C(=O)O)C(C)(C)S[C@@H]32)c2ccc(O)c(O)c2)C(=O)C1=O [Example 58, 6β-[L-2-[(4-ethyl-2,3-dioxopiperazin-1-yl)carbonyllamino]-2-(3,4-dihydroxyphenyl)acetamido]-6α-formamidopenicillanic acid, sodium salt]
MIC (P. mirabilis 889): 100 µg/mL

O=CN[C@@]1(NC(=O)Cc2cccs2)C(=O)N2C(C(=O)[O-])=C(C[n+]3ccccc3)CS[C@@H]21 [Example 60, 7α-Formamido-3-(pyridiniummethyl)-7β-(thien-2-ylacetamido)-ceph-3-em-4-carboxylate]
MIC (P. mirabilis 889): 50 µg/mL (≈ 109 µM)

CC(=O)Oc1ccc([C@@H](N)C(=O)N[C@]2(NC=O)C(=O)N3[C@@H](C(=O)O)C(C)(C)S[C@@H]32)cc1OC(C)=O [Example 64, 6β-[D-2-Amino-2-(3,4-diacetoxyphenyl)acetamido]-6α-formamido penicillanic acid]
MIC (P. mirabilis 889): 100 µg/mL (≈ 197 µM)

CC(=O)OCC1=C(C(=O)O)N2C(=O)[C@@](NC=O)(NC(=O)/C(=N\OC(C)(C)C(=O)O)c3csc(N)n3)[C@H]2SC1 [Example 67, 7β-[(Z)-2-(2-Aminothiazol-4-yl)-2-(1-carboxy-1-methylethoxyimino)acetamido]-7α-formamidocephalosporanic acid disodium salt]
MIC (P. mirabilis 889): 30 µg/mL

CCN1CCN(C(=O)NC(C(=O)NC2(NC=O)C(=O)N3C(C(=O)[O-])=C(CSc4nnc(C)s4)CSC32)c2ccc(OC(C)=O)c(OC(C)=O)c2)C(=O)C1=O.[Na+] (stereo not drawn) [Example 68, 7β-[2-(3,4-Diacetoxyphenyl)-2-[(4-ethyl-2,3-dioxopiperazin-1-yl)carbonylamino]acetamido]-7α-formamido-3-[(2-methyl-1,3,4-thiadiazol-5-yl)thiomethyl]ceph-3-em-4-carboxylic acid, sodium salt]
MIC against P. mirabilis 889 (P. mirabilis 889; P. mirabilis 889): 0.1 µg/mL

CCN1CCN(C(=O)N[C@@H](C(=O)N[C@]2(NC=O)C(=O)N3C(C(=O)O)=C(COC(C)=O)CS[C@@H]32)c2ccc(O)c(O)c2)C(=O)C1=O [Example 69, 7β-[D-2-[(4-Ethyl-2,3-dioxopiperazin-1-yl)carbonylamino]-2-(3,4-dihydroxyphenyl)acetamido]-7α-formamidocephalosporanic acid, sodium salt]
MIC (P. mirabilis 889): 0.1 µg/mL
